Reference: patent publication US7598377B2, “Inhibition of phosphoinositide 3-kinase β” (AstraZeneca AB, priority 2002, dated 2009)
pIC50: −log10 of the molar value. Like-named read-outs stand apart in the source and are kept apart here.

Assays:
[1] = tested on: carotid artery cyclic flow reductions in rat; experiment: Animal model of internal carotid artery occlusion (Folts); assay type: in vivo; conditions: 14.0 mg/kg via the jugular vein
From the text: This model is used to investigate the effects of antithrombotic drugs on clotting time in vivo in response to a crash injury followed by arterial stenosis.
The carotid artery of an anesthetized rat is dissected out, and an electromagnetic flow probe is placed around the artery to measure blood flow. Proximal to the flow probe, the artery is clamped with surgical forceps covered with silicone tubing to cause intimal and medial damage to the vessel wall. A ligature, or plastic cylinder of appropriate inside diameter is laced around the artery to produce a 70% reduction in arterial diameter.
Platelets aggregate in the area of the stenosed and damaged arterial vessel, gradually forming an occlusive platelet thrombus, seen as a decrease in blood flow. As the thrombus forms, blood pressure increases, causing the thrombus to fragment and embolize distal to the stenosed site. […] This causes a sudden restoration of blood flow. Platelets again aggregate in the area of the stenosed and damaged arterial vessel, repeating the thrombus-embolization pattern. This acute, platelet-mediated thrombus formation, followed by embolization, causes Cyclic Flow Reductions (CFR) in blood flow. Once a rat produces regular CFRs, an anti-thrombotic compound or vehicle control is administered via the jugular vein.

[2] = tested on: PI 3-kinase immunoprecipitated from human platelets (p85/110 form); experiment: In vitro PI 3-kinase assay (Example 8), Platelet IP (p85); assay type: biochemical; conditions: read-out: Platelet IP (p85) IC50s
Procedure: The effect of pyridine-substituted compounds on PI 3-kinase activity was determined using an in vitro PI 3-kinase assay. This assay was performed using PI 3-kinase immunoprecipitated from human platelets as the enzyme and PI as the substrate. The PI 3-kinase activity was quantitated by measuring the enzymatic incorporation of [^32P] into PI, forming PI([^32P]-3)P, as previously described (Susa et al., 1992, The Journal of Biological Chemistry 267(32):22951-22956.
Washed human platelets were lysed in Triton X-100 lysis buffer (10 mM Tris, pH 7.4, 1% Triton X-100, 2 mM EDTA, 1 mM PMSF) for 30 minutes. The Triton X-100 insoluble fraction was removed by centrifugation of the cell lysates at 15,000 g for 10 minutes. PI 3-kinase was immunoprecipitated by mixing 500 μg of the cell lysate with 1 μg of a rabbit anti-rat antibody against the p85/110 form of PI 3-kinase and 30 μl of 50% Protein A-sepharose beads for 2 hours at 4° C. The Protein A-sepharose-bound PI 3-kinase was isolated by pelleting the beads at 15,000 g for 5 seconds, and washing three times with ice-cold Triton X-100 lysis buffer followed by four washes with PI 3-kinase assay buffer (20 mM HEPES, pH 7.4, 1 mM EGTA, 5 mM MgCl2).
PI stored in CHCl3 was dried under N2, resuspended in the lipid buffer (50 mM HEPES, pH 7.2, 1 mM EDTA) at a final concentration of 330 μg/ml, and sonicated for 6 minutes on ice. PI([^32P]-3)P was generated by mixing the immunoprecipitated PI 3-kinase for 20 minutes with 40 μl of the PI, 10 μl of ATP (1 mM) and ^32P-r-ATP (0.5 μCi, 1 μCi/nmol), 10 μl of 10× kinase buffer, in a final assay volume of 100 μl adjusted with H2O. TGX-was preincubated with the PI 3-kinase for 5 minutes prior to the addition of ATP. The assay was terminated with 100 μl of 1 N HCl, and the PI([^32P]-3)P product extracted with 200 μl chloroform:methanol (1:1) and 500 μl 2 M KCl. The PI([^32P]-3)P in the chloroform phase was resolved by thin layer chromatography using a solvent system containing CHCl3:MeOH:HAC:H2O (43:38:5:7) (v:v:v:v), and visualized by autoradiography. The PI([^32P]-3)P spots were then scraped off from the TLC plates, deacylated with 1 ml methylamine:butanol:methanol (42:9:47) (v:v:v) for 4 hours at 53° C., and quantitated using a liquid scintillation counter (LKB 1209 RackBETA).

[3] = tested on: platelet thrombus formation in citrated whole blood; experiment: Platelet thrombus formation under flow (Example 12, 600 s^−1); assay type: cell-based; conditions: read-out: Inhibition of Thrombus formation Example 12 IC50/
Procedure: Blood was perfused through von Willebrand factor—(vWf) coated microcapillary tubes for 2 minutes at 600 s^−1. Non-adherent cells were removed by perfusion of buffer for 2 minutes at 600 s^−1 and any adherent erythrocytes lysed through treatment with 1% ammonium oxalate. Adherent platelets were then lysed through addition of 1% Triton X-100 and lactate dehydrogenase (LDH) levels (U/L) analysed by spectrophotometry.

platelet rich plasma = experiment: CD9-antibody induced platelet aggregation of platelet rich plasma; assay type: cell-based; conditions: read-out: Platelet aggregation v. CD9 antibody Example 10 IC50/
Procedure: The inhibitory effect of TGX286 and KN327 on platelet aggregation induced by the antibody CD9 was examined in platelet rich plasma (PRP). A suspension of PRP was incubated with 20-100 nM TGX286 or control buffer (0.1% DMSO) and treated with an aliquot of the antibody. Aggregation under stirring was monitored in a four channel aggregometer for 10 minutes. The level of aggregation was measured as the change in light transmission through the sample cell.

neutrophils = experiment: Neutrophil ROS response (fmlp, DHR, FACS); assay type: cell-based, human; conditions: fmlp stimulation, read-out: ROS release from neutrophils Example 14 IC50/
Procedure: 3 ml of preservative free whole blood was placed in a 50 ml conical tube. 48 ml of erythrocyte lysing solution and gently mixed by inversion for 10 min at 25° C. on a haematology nutator and subsequently centrifuged for 10 min at 350×g at 25° C. in a table top centrifuge. The Leukocyte rich pellet was resuspended in phosphate buffered saline supplemented with […] (PBS-gel) and centrifuged as above. The Leukocyte pellet was washed once with Hanks' balanced salt solution (HBSS) and resuspended at a final cell count of 2×10^6/ml and used immediately.
Reactive Oxygen Species (ROS) generation is one of the hall-marks of neutrophil activation. A number of chemokines and cytokines potentiate ROS generation by neutrophils. […] ROS generation was measured by monitoring the oxidation of intracellular dihydrorhodamine 123 (DHR) via fluorescence activated cell sorting (FACS) by modification of the method of Robinson et al., (pp 9.7.5-9.7.9 in Curr. Protocols in Cytometry (1997)). A Leukocyte suspension was bulk loaded with 2 μl of 50 mM DHR per ml cells ([…]) and incubated at 37° C. for 12 min. […] Fluorescence base-line data was calibrated using these gated control neutrophils. Stimulated cell samples were analysed and linear green fluorescence (DHR) was monitored for 5000 gated neutrophils from each sample. […]

P110 γ = molecular target: T1, P110 γ (Homo sapiens, UniProt P48736); experiment: Isoform selective in vitro PI3K enzyme assay (Example 13), γ recombinant; assay type: biochemical; conditions: read-out: P110 γ IC50s
T1 construct: made in house
T1 sequence (P48736 whole entry, species assumed, canonical isoform): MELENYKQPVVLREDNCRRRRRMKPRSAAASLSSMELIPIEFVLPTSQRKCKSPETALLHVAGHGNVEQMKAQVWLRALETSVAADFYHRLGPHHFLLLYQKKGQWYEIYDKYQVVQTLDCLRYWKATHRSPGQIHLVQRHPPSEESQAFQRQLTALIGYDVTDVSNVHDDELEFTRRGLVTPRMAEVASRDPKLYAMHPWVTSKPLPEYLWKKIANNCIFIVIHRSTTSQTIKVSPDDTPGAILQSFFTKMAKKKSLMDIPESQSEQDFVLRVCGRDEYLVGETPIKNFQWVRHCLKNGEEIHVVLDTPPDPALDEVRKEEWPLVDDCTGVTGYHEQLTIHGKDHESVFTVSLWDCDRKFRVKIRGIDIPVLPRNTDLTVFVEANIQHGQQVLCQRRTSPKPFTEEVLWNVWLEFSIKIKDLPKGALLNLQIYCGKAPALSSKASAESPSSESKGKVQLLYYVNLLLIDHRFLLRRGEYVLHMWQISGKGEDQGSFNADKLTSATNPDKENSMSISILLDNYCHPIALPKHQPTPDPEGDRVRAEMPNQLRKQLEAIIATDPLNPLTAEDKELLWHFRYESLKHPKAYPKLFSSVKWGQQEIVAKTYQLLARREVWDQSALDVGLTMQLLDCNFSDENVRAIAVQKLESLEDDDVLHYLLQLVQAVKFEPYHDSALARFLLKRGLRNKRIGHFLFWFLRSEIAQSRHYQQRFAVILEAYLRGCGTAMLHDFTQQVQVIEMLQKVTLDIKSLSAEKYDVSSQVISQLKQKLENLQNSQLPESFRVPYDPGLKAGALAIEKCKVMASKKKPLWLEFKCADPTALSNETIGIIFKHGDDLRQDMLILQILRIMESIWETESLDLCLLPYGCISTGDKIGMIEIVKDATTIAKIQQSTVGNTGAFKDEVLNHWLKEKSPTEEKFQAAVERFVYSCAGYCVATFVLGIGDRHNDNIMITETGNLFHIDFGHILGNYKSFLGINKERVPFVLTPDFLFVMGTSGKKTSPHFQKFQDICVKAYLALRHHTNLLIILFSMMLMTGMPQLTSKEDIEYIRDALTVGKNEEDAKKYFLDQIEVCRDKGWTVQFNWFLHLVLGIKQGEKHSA
Procedure: (§1) In vitro enzyme assays were conducted as a primary screen to determine drug candidate isoform affinity and specificity. The α and β isoforms of the PI3K were immunoprecipitated from a platelet lysate, using an antibodies obtained from Santa Cruz Biotechnology, that recognized specific regions of p110α (sc-7174) and β (sc-603) isoforms. The γ isoform was produced as a recombinant protein in the Kinacia laboratories. […] Standard phosphorylation assays using phosphatidylinositol and ^32P were used to measure the enzyme activity in the immunoprecipates in the presence or absence of an inhibitor. Enzyme activity was determined over a range of inhibitor concentrations to establish an IC50 value.

P110 δ = molecular target: T2, P110 δ (Homo sapiens, UniProt O00329); experiment: Isoform selective in vitro PI3K enzyme assay (Example 13), δ from THP-1 cells; assay type: biochemical; conditions: read-out: P110 δ IC50s
T2 construct: The δ isoform was immunoprecipitated from THP-1 cells; endogenous in cells; host or cells: THP-1 cells (immunoprecipitated with antibody sc-7176)
T2 sequence (O00329 whole entry, canonical isoform): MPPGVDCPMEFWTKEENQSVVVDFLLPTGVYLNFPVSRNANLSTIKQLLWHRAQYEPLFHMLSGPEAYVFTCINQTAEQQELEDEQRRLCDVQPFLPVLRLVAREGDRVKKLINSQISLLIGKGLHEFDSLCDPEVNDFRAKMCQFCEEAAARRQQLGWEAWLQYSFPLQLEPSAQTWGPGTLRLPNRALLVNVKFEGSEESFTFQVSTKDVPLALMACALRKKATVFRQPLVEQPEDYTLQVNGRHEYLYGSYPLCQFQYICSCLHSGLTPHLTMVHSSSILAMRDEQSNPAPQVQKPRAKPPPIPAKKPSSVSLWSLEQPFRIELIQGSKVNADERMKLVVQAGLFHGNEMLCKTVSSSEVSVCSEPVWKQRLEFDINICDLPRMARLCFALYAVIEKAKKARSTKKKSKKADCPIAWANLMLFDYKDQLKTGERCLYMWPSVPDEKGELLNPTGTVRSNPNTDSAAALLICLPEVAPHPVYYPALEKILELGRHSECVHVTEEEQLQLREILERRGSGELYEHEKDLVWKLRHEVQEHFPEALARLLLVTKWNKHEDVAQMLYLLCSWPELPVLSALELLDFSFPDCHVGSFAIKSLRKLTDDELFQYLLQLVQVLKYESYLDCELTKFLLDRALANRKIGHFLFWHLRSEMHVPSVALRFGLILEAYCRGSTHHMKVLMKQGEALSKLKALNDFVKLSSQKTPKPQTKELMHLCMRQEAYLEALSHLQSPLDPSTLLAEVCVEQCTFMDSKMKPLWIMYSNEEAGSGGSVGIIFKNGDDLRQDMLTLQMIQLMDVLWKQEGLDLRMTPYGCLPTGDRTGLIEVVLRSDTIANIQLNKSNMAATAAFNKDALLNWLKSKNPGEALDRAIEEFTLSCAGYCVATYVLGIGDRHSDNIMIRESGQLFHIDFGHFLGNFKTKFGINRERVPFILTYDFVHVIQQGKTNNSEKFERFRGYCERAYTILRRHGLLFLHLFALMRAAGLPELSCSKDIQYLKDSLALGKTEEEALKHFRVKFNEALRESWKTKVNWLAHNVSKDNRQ
T2 sequence (P27986 whole entry partner, canonical isoform): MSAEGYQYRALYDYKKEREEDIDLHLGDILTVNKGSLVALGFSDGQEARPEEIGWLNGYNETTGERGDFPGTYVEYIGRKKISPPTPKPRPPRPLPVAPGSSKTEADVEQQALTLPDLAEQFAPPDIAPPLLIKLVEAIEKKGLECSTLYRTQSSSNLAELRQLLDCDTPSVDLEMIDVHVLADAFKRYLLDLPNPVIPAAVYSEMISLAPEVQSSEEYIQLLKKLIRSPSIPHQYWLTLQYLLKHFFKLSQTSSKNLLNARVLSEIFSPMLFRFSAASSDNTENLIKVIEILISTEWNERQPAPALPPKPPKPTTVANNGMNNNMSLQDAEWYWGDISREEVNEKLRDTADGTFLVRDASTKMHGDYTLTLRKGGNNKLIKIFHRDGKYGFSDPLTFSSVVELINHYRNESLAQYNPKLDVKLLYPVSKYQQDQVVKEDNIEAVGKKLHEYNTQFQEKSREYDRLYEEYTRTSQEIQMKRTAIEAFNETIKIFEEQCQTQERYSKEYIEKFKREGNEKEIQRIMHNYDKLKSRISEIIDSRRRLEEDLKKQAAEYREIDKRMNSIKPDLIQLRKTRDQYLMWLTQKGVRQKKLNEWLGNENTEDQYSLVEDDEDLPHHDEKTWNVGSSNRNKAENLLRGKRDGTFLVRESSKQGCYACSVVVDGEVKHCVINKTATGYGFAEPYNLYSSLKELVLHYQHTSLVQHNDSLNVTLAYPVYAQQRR
Procedure: as §1, with “The α and β isoforms of the PI3K were immunoprecipitated from a platelet lysate, using an antibodies obtained from Santa Cruz Biotechnology, that recognized specific regions of p110α (sc-7174) and β (sc-603) isoforms.” left out

various isoforms of PI3K = tested on: T3, various isoforms of PI3K; conditions: measured IC50 stated to agree with previously reported values; read-out: IC50 against the various isoforms of PI3K; cited from earlier work
T3 construct: The γ isoform was produced as a recombinant protein in the Kinacia laboratories

[4] = tested on: platelets on immobilized vWf; experiment: In vitro flow studies: platelet calcium flux and adhesion on immobilized vWf; assay type: cell-based; conditions: vWf matrix, shear rate gradient up to 10,000 s^−1 over 1 s
Procedure: The use of an in vitro-flow based adhesion assay enables us to simultaneously analyze platelet adhesion dynamics and activation (by monitoring cytosolic calcium flux) on immobilized von Willebrand factor (vWf). Briefly, isolated platelets are perfused through vWf (100 μg/ml) coated microcapillary tubes and analysis of cytosolic calcium flux conducted in real-time by confocal microscopy.
Washed platelets (1.5×10^9) suspended in PWB were incubated with the calcium indicator dyes, Oregon Green 488 BAPTA-1, AM (1 μM) and Fura Red, AM (1.25 μM), for 30 min at 37° C. Platelets were washed twice with PWB prior to being resuspended in Tyrode's buffer containing 1 mM calcium.
For static adhesion assays, platelets were allowed to settle on the surface of vWf-coated coverslips for 30 min at 37° C. For flow assays, platelets were either perfused over a vWf-coated microcapillary tube at a constant shear rate of 600, 1800 or 10,000 s^−1 or allowed to settle on the surface of a vWf-coated microcapillary tube prior to being accelerated through a shear gradient of 10,000 s^−1 over a 1 s interval. Real time platelet calcium flux in individual platelets was monitored at 1 s intervals over the 30 min incubation period or at 0.586 s intervals for up to 175 s for static and flow-based assays, respectively.

U937 cells = experiment: Cell proliferation assay; assay type: cell-based; conditions: Homo sapiens, U-937; read-out: Anti-proliferative activity v. U937 cells Example 16 IC50/
From the text: The cytotoxic activity of the compounds was monitored over four days by counting cell number, and determining cell viability using a colorimetric assay of metabolic activity.

P110 β isoform = molecular target: T4, P110 β isoform (Homo sapiens, UniProt P42338); experiment: Isoform selective in vitro PI3K enzyme assay (Example 13), β; assay type: biochemical
T4 construct: The α and β isoforms of the PI3K were immunoprecipitated from a platelet lysate; from tissue; host or cells: washed platelets (lysate, immunoprecipitated with anti-p110β antibody)
T4 sequence (P42338 whole entry, canonical isoform): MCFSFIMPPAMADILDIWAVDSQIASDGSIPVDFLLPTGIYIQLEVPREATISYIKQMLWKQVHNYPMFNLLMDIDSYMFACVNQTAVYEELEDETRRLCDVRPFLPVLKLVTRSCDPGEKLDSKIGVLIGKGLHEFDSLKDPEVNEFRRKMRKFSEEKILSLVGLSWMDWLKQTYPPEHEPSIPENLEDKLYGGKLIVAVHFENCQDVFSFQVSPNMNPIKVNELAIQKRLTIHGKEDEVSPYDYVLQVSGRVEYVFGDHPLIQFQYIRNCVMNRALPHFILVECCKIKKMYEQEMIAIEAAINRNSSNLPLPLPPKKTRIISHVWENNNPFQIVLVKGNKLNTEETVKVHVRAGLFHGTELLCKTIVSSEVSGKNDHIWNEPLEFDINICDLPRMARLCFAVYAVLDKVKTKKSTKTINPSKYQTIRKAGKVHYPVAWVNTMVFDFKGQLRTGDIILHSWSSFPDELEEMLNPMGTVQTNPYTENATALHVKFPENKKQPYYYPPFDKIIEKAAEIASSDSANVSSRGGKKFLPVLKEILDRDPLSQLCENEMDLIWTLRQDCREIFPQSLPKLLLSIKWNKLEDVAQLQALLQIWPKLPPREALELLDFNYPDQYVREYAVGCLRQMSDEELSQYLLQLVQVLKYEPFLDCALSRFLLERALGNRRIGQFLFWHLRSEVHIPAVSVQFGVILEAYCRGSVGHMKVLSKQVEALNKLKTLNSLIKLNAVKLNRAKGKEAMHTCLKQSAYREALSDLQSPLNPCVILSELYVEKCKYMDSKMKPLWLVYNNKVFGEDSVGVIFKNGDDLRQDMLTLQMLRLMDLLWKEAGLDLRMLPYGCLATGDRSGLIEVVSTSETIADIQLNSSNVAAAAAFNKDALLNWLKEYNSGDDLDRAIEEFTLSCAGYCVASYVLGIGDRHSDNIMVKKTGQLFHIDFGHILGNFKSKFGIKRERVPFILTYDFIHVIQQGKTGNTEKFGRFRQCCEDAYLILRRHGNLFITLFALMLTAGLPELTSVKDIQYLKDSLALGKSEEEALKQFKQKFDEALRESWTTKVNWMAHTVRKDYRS
T4 sequence (P27986 whole entry partner, canonical isoform): as the sequence (P27986 whole entry partner, canonical isoform) above
Procedure: In vitro enzyme assays were conducted as a primary screen to determine drug candidate isoform affinity and specificity. The α and β isoforms of the PI3K were immunoprecipitated from a platelet lysate, using an antibodies obtained from Santa Cruz Biotechnology, that recognized specific regions of p110α (sc-7174) and β (sc-603) isoforms. The γ isoform was produced as a recombinant protein in the Kinacia laboratories. The δ isoform was immunoprecipitated from THP-1 cells in a similar manner using a δ isoform specific antibody (sc-7176). Standard phosphorylation assays using phosphatidylinositol and ^32P were used to measure the enzyme activity in the immunoprecipates in the presence or absence of an inhibitor. Enzyme activity was determined over a range of inhibitor concentrations to establish an IC50 value.

washed platelets = experiment: Flow-based reconstitution assay (platelet adhesion to vWf); assay type: cell-based; conditions: 1800 s^−1
Procedure: The platelets and reconstituted red blood cells were perfused through vWf-coated glass microslides for 1 minute at a shear rate of 1800 s^−1. Non-adherent cells were removed by washing for 10 minutes at 1800 s^−1 and the number of adherent platelet were quantitated and expressed as the mean±SEM.

Row | pIC50 [3] | pIC50 (neutrophils) | pIC50 (P110 γ) | pIC50 (P110 δ) | Compound | treated animals returned to baseline within 10 minutes [1] [%] | pIC50 [2] | pIC50 (platelet rich plasma) | pIC50 (various isoforms of PI3K) | platelet responses to accelerated shear [4] | pIC50 ([3]; Platelet) | pIC50 (U937 cells) | pIC50 (P110 β isoform) | pIC50 (neutrophils; Homo sapiens, Neutrophil) | decrease in platelet adhesion (washed platelets; 10 nM) [%] | decrease in platelet adhesion (washed platelets; 25 nM) [%] | decrease in platelet adhesion (washed platelets; 50 nM) [%]
1 | 6.60 | 7.11 | 4.82 | 6.30 | 8-(1-(2-aminophenylamino)ethyl-2-(4-pyridinyl)-4H-benzopyran-1-one [KN327] | 80 | 7.70 | 6.70 | – | – | – | – | – | – | – | – | –
2 | – | – | – | – | O=c1cc(N2CCOCC2)oc2c(-c3ccccc3)cccc12 [LY294002, 8-phenyl-2-(4-morpholinyl)-4H-benzopyran-4-one, reference compound] | – | – | – | 5.82 to 6.30 | eliminates platelet responses to accelerated shear | – | – | – | – | – | – | –
3 | – | – | – | – | Cc1cc(C(C)Nc2ccccc2)c2oc(-c3ccncc3)cc(=O)c2c1 (stereo not shown) [TGX-286, 8-1-(phenylamino)ethyl-6-methyl-2-(4-pyridinyl)-4H-1-benzopyran-4-one] | 80 | 8.70 | 7.00 | – | – | 6.30 | 5.30 | 8.70 | 8.30 | 51 | 67 | 86
